The text below walks through data of article PMC9229294, “Pyridazinones and Structurally Related Derivatives with Anti-Inflammatory Activity” (Molecules, 2022).

Where two headings read alike, the source gives them in different places.

Data set [1] deals with LPS-induced NF-κB activity in THP1-Blue cells. The data set can be described thus: Inhibition of LPS-induced NF-κB transcriptional activity, alkaline phosphatase reporter, THP1-Blue cells. It counts as cell-based, human. The conditions noted are these: for IC50: Homo sapiens, LPS-induced NF-κB activity, human THP1-Blue cells, N.A. = no activity at 50 µM; for Observed class for inhibition of NF-κB activity: experimentally observed, Active or N.A.; for Effect of blocking FPR1 (Boc-MLF) on inhibitor activity on LPS-induced NF-κB activation: 25 μM Boc-MLF 15 min, then 5 µM compound, LPS-treated THP1 cells. In short, it runs like this:
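THP1-Blue cells (NF-κB-inducible secreted alkaline phosphatase reporter) pretreated 30 min with compound at final 3.125–50 µM (1% DMSO), then stimulated with 250 ng/mL LPS for 24 h. Supernatant alkaline phosphatase read at 655 nm with QUANTI-Blue, relative to LPS-only controls.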

The subject of data set [2] is LPS-induced IL-6 production in MonoMac-6 cells. The data set can be described thus: Inhibition of LPS-induced IL-6 production in MonoMac-6 cells (ELISA). It counts as cell-based, human. The conditions noted are these: for IC50: Homo sapiens, MONO-MAC-6, read-out: Inhibition of IL-6 Production IC50 in MonoMac-6 Cells. In short, it runs like this:
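MonoMac-6 cells pretreated 30 min with compound (3.125–50 µM, 1% DMSO), then stimulated 24 h with 250 ng/mL LPS. IL-6 measured by ELISA; IC50 from percent inhibition vs log concentration, at least five points.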

The nature of data set [3]: Cytotoxicity, CellTiter-Glo, THP1-Blue cells. Format: cell-based, human. The note with it: human, THP1-Blue cells; N.T. = no cytotoxicity at 50 µM; read-out: Cytotoxicity IC50 in THP1-Blue Cells. In short, it runs like this: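 THP1-Blue or MonoMac-6 cells were exposed for 24 h to compounds at 3.125–50 µM final (1% DMSO). Viability was read as ATP-dependent luminescence (CellTiter-Glo). IC50 came from % inhibition plotted against log concentration (at least five points).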

Data set [4] in a line: Cytotoxicity, CellTiter-Glo, MonoMac-6 cells. It counts as cell-based, human. The conditions noted are these: human, MonoMac-6 cells. Here is the method: (§1) Our studies included 175 compounds that were previously synthesized and characterized at NEUROFARBA, Pharmaceutical and Nutraceutical Section, University of Florence, Italy. We previously evaluated the FPR1/FPR2 agonist activity of these compounds by evaluating their ability to induce Ca^2+ mobilization in FPR-transfected HL60 cells and human neutrophils. […] All test compounds were dissolved in DMSO at stock concentrations of 10 mM and stored at −20 °C. For primary screening assays (analysis of NF-κB activation, IL-6 production, and cytotoxicity), the following final concentrations of the compounds were used: 3.125, 6.25, 12.5, 25, and 50 µM; the final concentration of DMSO was 1% in all samples.
(§2) The cytotoxicity was analyzed with a CellTiter-Glo Luminescent Cell Viability Assay Kit from Promega (Madison, WI, USA), according to the manufacturer’s protocol. The luminescent ATP assays are based on a luciferase enzymatic reaction which uses ATP from viable cells to generate photons. For this assay, the cells were incubated with the compounds under investigation for 24 h. After treatment, the cells were equilibrated to room temperature for 30 min, luciferase + luciferin substrate was added, and the samples were analyzed with a Fluoroscan Ascent FL (Thermo Fisher Scientific, Waltham, MA, USA). The IC50 values were calculated by plotting the percentage inhibition against the logarithm of the inhibitor concentration (at least five points).
(In general: ATP-based viability assays read luminescence as a measure of living cells.)

A further data set has as its system MonoMac-6 cells. The data set can be described thus: Cytotoxicity, CellTiter-Glo, MonoMac-6 cells. It counts as cell-based, human. The conditions noted are these: 24 h. Here is the method:
as §1, §2

The target of data set [5] is T1, FPR1 (Homo sapiens, UniProt P21462).
T1 construct: expressed in transfected cells; host or cells: HL-60 cells (FPR1-HL60)
T1 sequence (P21462 1-350): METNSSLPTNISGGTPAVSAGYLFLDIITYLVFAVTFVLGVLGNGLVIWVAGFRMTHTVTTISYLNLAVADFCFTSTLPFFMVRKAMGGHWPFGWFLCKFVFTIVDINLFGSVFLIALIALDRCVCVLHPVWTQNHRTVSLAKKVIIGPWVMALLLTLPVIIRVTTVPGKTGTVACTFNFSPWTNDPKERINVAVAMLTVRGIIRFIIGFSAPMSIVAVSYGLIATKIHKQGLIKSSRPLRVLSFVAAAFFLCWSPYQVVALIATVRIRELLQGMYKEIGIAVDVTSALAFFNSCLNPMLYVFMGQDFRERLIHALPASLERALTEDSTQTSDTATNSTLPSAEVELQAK
Nature of the data set: Ca2+ mobilization in FPR1-transfected HL-60 cells (agonist activity). It counts as cell-based. The note with it: reported here for the first time (Suppl.). Here is the method:
(§3) Changes in the intracellular Ca^2+ [Ca^2+]i were measured with a FlexStation II scanning fluorometer (Molecular Devices). The cells, which were suspended in Hank’s balanced salt solution without Ca^2+ and Mg^2+ but with 10 mM HEPES (HBSS^−), were loaded with 1.25 μg/mL Fluo-4 AM dye and incubated for 30 min in the dark at 37 °C. After the dye loading, the cells were washed with HBSS^− containing 10 mM HEPES, resuspended in HBSS^+ containing Ca^2+, Mg^2+, and 10 mM HEPES (HBSS^+), and aliquoted into the wells of black microtiter plates (2 × 10^5 cells/well). […] The maximum change in the fluorescence during the first 3 min, expressed in arbitrary units over the baseline, was used to determine a response. […] A curve fitting (5–6 points) and a calculation of median effective inhibitory concentrations (IC50) were performed by nonlinear regression analysis of the dose–response curves generated using Prism 8 (GraphPad Software, Inc., San Diego, CA, USA).

Data set [6] has as its target T2, FPR2 (Homo sapiens, UniProt P25090).
T2 construct: expressed in transfected cells; host or cells: HL-60 cells (FPR2-HL60)
T2 sequence (P25090 1-351): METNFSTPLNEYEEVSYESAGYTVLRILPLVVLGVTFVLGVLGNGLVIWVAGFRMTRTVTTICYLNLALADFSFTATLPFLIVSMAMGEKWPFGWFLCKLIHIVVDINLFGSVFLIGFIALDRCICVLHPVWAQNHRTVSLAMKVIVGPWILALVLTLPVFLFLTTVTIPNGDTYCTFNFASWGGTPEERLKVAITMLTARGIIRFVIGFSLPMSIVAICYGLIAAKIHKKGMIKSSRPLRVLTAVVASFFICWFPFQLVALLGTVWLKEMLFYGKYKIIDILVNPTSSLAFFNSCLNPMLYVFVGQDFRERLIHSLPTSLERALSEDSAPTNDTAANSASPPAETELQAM
The data set can be described thus: Ca2+ mobilization in FPR2-transfected HL-60 cells (agonist activity). Format: cell-based. The conditions noted are these: reported here for the first time (Suppl.). Here is the method: as §3
Background: A change in cytosolic calcium serves as a functional read-out for many receptors and channels.

In data set [7] the target is T1, FPR1. The note with it: Table 3; FPR1-transfected HL-60 cells; as reported previously (see Table 1); read-out: Ca2+ Mobilization FPR1 EC50 in HL-60 Cells; cited from earlier work.
For data set [8], the target named is T2, FPR2. The conditions noted are these: FPR2-transfected HL-60 cells, read-out: Ca2+ Mobilization FPR2 EC50 in HL-60 Cells, cited from earlier work.
The subject of data set [9] is rats with CFA-induced inflammatory arthritis. On the set-up: method as in PMID 32388428. The note with it: cited from earlier work.
For a further data set, the system named is mouse aortas. Further details: method as in PMID 19639995, PMID 32085666, PMID 28169296. The note with it: cited from earlier work.
The test system of data set [10] is myocardial infarction injury in mice. On the set-up: method as in PMID 19639995, PMID 32085666, PMID 28169296. The note with it: cited from earlier work.

Broadly, the IC50 is the concentration that gives 50% inhibition. Turning to `Cc1cc(Cc2ccsc2)c(=O)n(CC(=O)Nc2ccc(Br)cc2)n1` [Compound 9], the values for the IC50 in data set [1] and in data set [2] were 18000 ± 700 nM and 27.5 ± 1.6 µM, respectively. Moreover, the “Observed class for inhibition of NF-κB activity” value in data set [1] is on record as “Active”. The figures for the IC50 at 24 h in data set [3] and in [4] were over 50 µM and 19 ± 3.6 µM, respectively. Moreover, the “Cytotoxicity in MonoMac-6 cells (in words)” value in the data set with MonoMac-6 cells was “exhibiting cytotoxicity”.
Broadly, the EC50 is the midpoint of the concentration-response curve. Turning to `Cc1cc(Cc2ccc(C(=O)Nc3ccc(Br)cc3)cc2)c(=O)n(CC(=O)Nc2ccc(Br)cc2)n1` [Compound 61], the concentration for a half-maximal effect (EC50) on FPR1 [5] and on FPR2 [6] was over 50 µM throughout.
As for `COc1cccc(Cc2c(-c3ccccc3)c(C)nn(CC(=O)Nc3ccc(Br)cc3)c2=O)c1` [Compound 71, N-(4-bromophenyl)-2-[5-(3-methoxybenzyl)-3-methyl-6-oxo-4-phenylpyridazin-1(6H)-yl]-acetamide], the “Effect of blocking FPR1 (Boc-MLF) on inhibitor activity on LPS-induced NF-κB activation” value in [1] is listed as “no effect”. Moreover, the IC50 in data set [1] was found to be 500 ± 100 nM; in data set [2], 2 ± 0.3 µM. Moreover, the “Inhibition of LPS-induced NF-κB activity (in words)” value in data set [1] (THP1-Blue cells, 250 ng/mL LPS, 24 h) is “inhibited”. Moreover, in data set [1], the “Observed class for inhibition of NF-κB activity” value is “Active”. Besides, the “Inhibition of LPS-induced IL-6 production (in words)” value in data set [2] (MonoMac-6 cells, 250 ng/mL LPS, 24 h) was “inhibited”. For the same compound, the IC50 at 24 h in [3] and in data set [4] was over 50 µM each time. Also, the half-maximal effective concentration (EC50) at FPR1 [7] was 2200 nM; at FPR2 [8] (agonist activity from Table 1), over 50 µM; at FPR2 [8] (Table 3, as reported previously (see Table 1)), over 50 µM. Besides, the Pain hypersensitivity result in data set [9] is reported as “reduce pain hypersensitivity”.
On to `COc1cccc(Cc2cc(C)nn(C(C)C(=O)Nc3ccc(Br)cc3)c2=O)c1` (centres unmarked) [Compound 84, N-(4-bromophenyl)-2-[5-(3-methoxybenzyl)-3-methyl-6-oxopyridazin-1(6H)-yl]-propanamide], for which, in [1], the “Effect of blocking FPR1 (Boc-MLF) on inhibitor activity on LPS-induced NF-κB activation” value is “no effect”. Further, the IC50 in [1] was found to be 600 ± 100 nM; in [2], 30.7 ± 1.8 µM. Moreover, the IC50 at 24 h in data set [3] and in data set [4] was over 50 µM each time. Also, the Endothelium-independent relaxation entry in the data set with mouse aortas is recorded as “induce endothelium-independent relaxation”. In addition, the “Cardioprotection in myocardial infarction injury” value in data set [10] is listed as “cardioprotection effect”.
For the compound `Nc1cc(-c2ccncc2)cn(CC(=O)Nc2ccc(Br)cc2)c1=O` [Compound 139], the EC50 at FPR1 [5] and at FPR2 [6] was over 50 µM in each case.
